Source: patent US20080235828A1 (University of Manitoba, priority 2004, published 2008)
“Also recorded” adds a separate entry of the source.

Experiments:
[1] = target: ABAP1 (Hordeum vulgare, UniProt Q9LLX3); assay: ABA binding assay with purified recombinant ABAP1; parameters: species or system barley; conditions: analogs/precursors added at the same time as 3H+-ABA at different concentrations (20-5000)
Protocol: Other additions or changes to the incubation system are discussed in the figure legends. All binding assays were carried out at a final volume of 150 μL at 4° C. for 1 hour. The mixture was then rapidly filtered through a nitrocellulose membrane, washed with 5 mL, of cold 0.5× binding buffer by rapid filtration, dried in air and counted in a scintillation counter (Wallac 1414 WinSpectral v1.40). […] The DCC binding mixture was maintained for 15 minutes on ice before centrifugation to precipitate DCC. The resulted supernatant was then counted in a scintillation counter to determine the binding activity. […] Heat denatured ABAP1 protein was used to determine the protein nature of the ABAP1 and BSA was used as a control. All binding studies were carried out using three different protein purifications with triplicate assays for each purification. […] Binding was represented as the number of moles of ^3H^+-ABA per mole of ABAP1 protein.

[2] = system: em promoter; assay: em promoter driven GUS expression in bombarded barley aleurone layers; assay type: cell-based; conditions: in the presence of the added substance
Excerpt: The studies examined the effector and reporter constructs, at a 1:1 ratio, introduced to barley aleurone layers by gold particle bombardment. The bombardment consisted of two trials: the first trial was a bombardment of em promoter only; the second trial was a bombardment of em promoters treated with ABAP1.

[3] = system: α-amylase activity; assay: α-amylase activity in bombarded barley aleurones; assay type: cell-based; conditions: em and ABAP1 bombarded aleurones
Protocol: A similar experiment was conducted with α-amylase activity to confirm if ABAP1 is involved in another signal transduction pathway. α-amylase activity was measured after ABA, PBI51 and GA were added to the em and ADAPT bombarded barley aleurones.

[4] = target: T1, FCA protein (Arabidopsis thaliana, UniProt O04425); assay: ABA binding assay with purified recombinant FCA; parameters: Kd; other: analog added in higher concentrations than 3H+-ABA (20-5000 nM); other: Scatchard analysis, r^2=0.88; other: in presence of 5 μM unlabelled (+)-ABA; pH range of maximum; fused on or other part: GST fused on for purification; conditions: analog added in higher concentrations than 3H+-ABA (20-5000 nM)
T1 sequence (O04425 1-747 isoform O04425-1): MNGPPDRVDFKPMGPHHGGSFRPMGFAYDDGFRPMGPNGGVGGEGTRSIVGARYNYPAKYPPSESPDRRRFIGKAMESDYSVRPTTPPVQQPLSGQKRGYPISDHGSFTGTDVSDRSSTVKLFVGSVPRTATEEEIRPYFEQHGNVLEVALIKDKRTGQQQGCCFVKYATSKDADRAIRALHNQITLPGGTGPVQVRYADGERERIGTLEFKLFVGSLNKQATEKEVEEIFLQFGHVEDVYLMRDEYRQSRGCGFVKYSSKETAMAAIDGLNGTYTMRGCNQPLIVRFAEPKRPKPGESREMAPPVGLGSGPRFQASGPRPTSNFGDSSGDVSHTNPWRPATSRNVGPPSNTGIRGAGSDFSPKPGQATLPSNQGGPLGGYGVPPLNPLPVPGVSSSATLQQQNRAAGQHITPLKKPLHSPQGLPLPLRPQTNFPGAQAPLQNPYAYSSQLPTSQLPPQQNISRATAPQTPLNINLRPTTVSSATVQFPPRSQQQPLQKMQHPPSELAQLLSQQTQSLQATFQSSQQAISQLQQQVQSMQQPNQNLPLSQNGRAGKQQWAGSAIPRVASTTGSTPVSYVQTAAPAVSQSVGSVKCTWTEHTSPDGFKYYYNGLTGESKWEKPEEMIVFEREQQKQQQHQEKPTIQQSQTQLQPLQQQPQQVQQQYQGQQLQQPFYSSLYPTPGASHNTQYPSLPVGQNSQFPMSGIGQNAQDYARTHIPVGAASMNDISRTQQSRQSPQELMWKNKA
Protocol: […] The mixture was then rapidly filtered through a nitrocellulose membrane, washed with 0.5× binding buffer, air dried and counted in a scintillation counter (Wallac 1414 WinSpectral v1.40). Heat denatured FCA protein was used to used determine the protein nature of the FCA and BSA was used as a control. All binding studies were carried out using three different GST affinity chromatography protein purifications with triplicate assays for each purification. […] Specific binding was calculated by taking the difference for assays with only ^3H^+-ABA (total binding) and assays that also contained 5 μM (±)-ABA added at the same time as ^3H^+-ABA (non-specific binding). Binding was represented as the number of moles of ^3H^+-ABA per mole of FCA protein.

[5] = system: FCA/FY interaction; assay: GST pull-down of FCA/FY interaction in the presence of ABA; assay type: binding, Arabidopsis; conditions: FCA pre-bound with ABA for 30 min
Protocol: All in vitro translation and GST pull-down assays were carried out as described by supplier's protocols (Promega, Madison, Wis.) with modifications^S and as follows. For GST in vitro pull-down assays, 15 μL GST affinity resin was incubated with 250 μL FCA clear lysate, pelleted and the complex blocked and washed with IP buffer as described^S. For the determination of the amount of FCA bound to GST resin, the pellet was resuspended with 200 μL of 15 mM GSH to elute FCA and the supernatant was recovered by centrifugation. FY protein to be tested for interaction with the GST-FCA fusion protein was synthesized from a plasmid template and labeled with [^35S]-methionine using the T7 TNT coupled Transcription/Translation System (Promega). Twenty μL of FY labeled protein and 180 μL of interaction buffer (12.5 mM Tris-HCl, pH 7.3 containing 5 mM KCl, 1 mM MgCl2, and 100 mM NaCl) were used to resuspend the GST:FCA after the final wash. The protein binding/interaction reaction was carried out for 90 minutes at 4° C. with continuous gentle mixing. The newly formed complex was then washed three times with 500 μL of IP wash buffer. After the final wash, the complex was resuspended, first with 10 μL of 1 5 mM GSH to facilitate the dissociation of interacted proteins from GST resin and then 10 μL of 2×SDS-PAGE sample buffer was added to the mixture and boiled for 5 minutes for complete elution of the proteins from the agarose beads. The beads were pelleted by centrifugation and supernatant was loaded on a 12% SDS-PAGE gel. The gel was dried and exposed to Kodak X-ray film for 18 hours at −70° C. and film was developed for the detection of labelled proteins.
FCA was bound with […] for 30 minutes at which time the FCA/FY translated product was added to the incubation mixture. The interaction between FCA/FY was carried out in the presence of either (−)- or (+)-ABA in binding buffer as described above. Released proteins were separated on SDS-PAGE and labelled proteins were detected as described above. FCA-WW-FY was used as a control.

[6] = ABA binding of ABAP1 trypsin fragments; parameters: species or system barley; conditions: for ABA binding molar ratio / affinity: trypsin fragments compared with full-length ABAP1
Excerpt: It is to be noted that the nucleotide fragment sequence SEQ ID NO: 12 corresponds to nucleotides 350 through 951 of the nucleotide sequence listing set forth in SEQ ID NO: 9, and that the amino acid sequence SEQ ID NO: 11 encoded by the nucleotide fragment sequence SEQ ID NO: 12 corresponds to amino acids 112 though 309 of the ABAP1 protein (SEQ. ID NO: 10). Mutation analysis can be used to determine the specific residues involved in […] binding. Those skilled in these arts will understand that the ABA-binding capacity within a recipient plant tissue or seed can be modulated by constructing a nucleotide molecule by first fusing the T-20 coding sequence (SEQ ID NO: 12) with a suitable regulatory nucleotide sequence selected for over-expression or for under-expression of the T-20 coding sequence, then stably introducing the T-20 nucleotide molecule into the genome of a recipient cell from a seed-producing plant, culturing the recipient cell into a functional whole plant and then further propagating the plant to produce mature recipient seeds. A suitable forward […] for the T-20 coding sequence is set forth in the sequence listing identified as SEQ ID NO: 15. A suitable reverse primer for the T-20 coding sequence is set forth in the sequence listing identified as SEQ ID NO: 16.

Chain of ABAP1 (Q9LLX3 entry or part of it): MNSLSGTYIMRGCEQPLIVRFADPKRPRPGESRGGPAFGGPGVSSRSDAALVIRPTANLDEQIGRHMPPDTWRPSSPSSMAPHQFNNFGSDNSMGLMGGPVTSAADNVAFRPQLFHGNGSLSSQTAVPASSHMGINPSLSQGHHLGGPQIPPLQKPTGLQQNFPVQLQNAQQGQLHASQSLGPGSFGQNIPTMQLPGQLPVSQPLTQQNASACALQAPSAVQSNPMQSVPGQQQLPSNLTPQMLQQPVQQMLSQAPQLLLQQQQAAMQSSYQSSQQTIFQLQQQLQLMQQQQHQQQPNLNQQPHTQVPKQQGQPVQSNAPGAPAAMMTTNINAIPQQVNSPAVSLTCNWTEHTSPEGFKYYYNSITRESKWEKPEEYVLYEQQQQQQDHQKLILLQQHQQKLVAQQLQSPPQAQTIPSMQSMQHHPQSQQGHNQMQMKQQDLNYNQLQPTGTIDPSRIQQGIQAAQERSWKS

With `CC1=CC(=O)CC(C)(C)[C@@]1(O)/C=C/C(C)=C\CO` [(+) ABA-alcohol] as the molecule, how does the “displacement of 3H+-ABA bound to ABAP1 (competition)” value (from here on “displacement of 3H+-ABA bound”) [1] read?
Its value is “able to displace”.

And the “displacement of 3H+-ABA bound” value ([1]; listed as ABA alcohol)?
Its value is “did competitively inhibit binding of ABA to ABAP1 to some extent”.

For `CC1=CC(=O)CC(C)(C)[C@@]1(O)/C=C/C(C)=C\C=O` [(+) ABA-aldehyde], which “displacement of 3H+-ABA bound” value [1] is on record?
The value was “able to displace”.

And the “displacement of 3H+-ABA bound” value ([1]; listed as ABA aldehyde)?
The value was “did competitively inhibit binding of ABA to ABAP1 to some extent”.

For `CC1=CC(=O)CC(C)(C)[C@@]1(O)/C=C/C(C)=C\C(=O)O[C@@H]1O[C@H](CO)[C@@H](O)[C@H](O)[C@H]1O` [ABA-GE, (+) abscisic acid-glucose ester], which “displacement of 3H+-ABA bound” value [1] is on record?
Its value is “incapability”.

With `CC(=C/C(=O)O)/C=C/[C@]1(O)[C@@]2(C)CO[C@]1(C)C[C@@H](O)C2` [DPA, dihydrophaseic acid] as the molecule, how does the “displacement of 3H+-ABA bound” value [1] read?
The value was “incapability”.

For `C=C1C[C@]23C[C@@]1(O)CC[C@H]2[C@@]12C=C[C@H](O)[C@@](C)(C(=O)O1)[C@H]2[C@@H]3C(=O)O` [GA, gibberellic acid], which “activation of the em promoter by ABAP1” value [2] is on record?
Its value is “reduced”.

What about the α-amylase activity [3] of the same molecule?
The α-amylase activity was “did not affect any reduction”.

For `CC(=C/C(=O)O)/C=C/[C@]1(O)[C@@]2(C)CO[C@]1(C)CC(=O)C2` [PA, phaseic acid], which “displacement of 3H+-ABA bound” value [1] is on record?
The value was “incapability”.

For `C/C(C#C[C@]1(O)[C@H](C)CC(=O)CC1(C)C)=C/CO` [PBI51], which “activation of the em promoter by ABAP1” value [2] is on record?
Its value is “reduced”.

What about the α-amylase activity [3] of the same molecule?
The α-amylase activity was “decreased”.

What does the source list for `CC(C=CC1(O)C(C)=CC(=O)CC1(C)C)=CC(=O)O` (stereo not drawn) [trans-ABA]?
displacement of 3H+-ABA binding to FCA [4]: Virtually no or very little displacement; displacement of 3H+-ABA bound to ABAP1 (competition) [1]: incapability; also recorded: neither (−)-ABA nor trans-ABA compete

For (−)-ABA, which “displacement of 3H+-ABA binding to FCA” value [4] is on record?
The value was “Virtually no or very little displacement”.

And the “inhibition of FCA/FY interaction” value [5]?
The value was “did not significantly inhibit”.

And the “displacement of 3H+-ABA bound” value [1]?
The value was “neither (−)-ABA nor trans-ABA compete”.

And the “displacement of 3H+-ABA bound” value ([1]; listed as (−) ABA)?
The value was “incapability”.

B1: 20 kDa fragment: trypsin fragment of ABAP1 with HR1 and HR2 regions, SEQ ID NO: 11 (protein)
chain: PQLFHGNGSLSSQTAVPASSHMGINPSLSQGHHLGGPQIPPLQKPTGLQQNFPVQLQNAQQGQLHASQSLGPGSFGQNIPTMQLPGQLPVSQPLTQQNASACALQAPSAVQSNPMQSVPGQQQLPSNLTPQMLQQPVQQMLSQAPQLLLQQQQAAMQSSYQSSQQTIFQLQQQLQLMQQQQHQQQPNLNQQPHTQVPK
modifications: Hordeum, vulgare subsp. vulgare
Which “ABA binding molar ratio / affinity” value [6] does the source give for B1 here?
Its value is “about the same molar ratio”.

B2: 10 kDa fragment: trypsin fragment of ABAP1 containing HR2 only, SEQ ID NO: 13 (protein)
chain: SAVQSNPMQSVPGQQQLPSNLTPQMLQQPVQQMLSQAPQLLLQQQQAAMQSSYQSSQQTIFQLQQQLQLMQQQQHQQQPNLNQQPHTQVPK
modifications: Hordeum, vulgare subsp. vulgare
Which “ABA-binding affinity relative to 20 kDa fragment and full-length protein” value [6] does the source give for B2 here?
Its value is “less than 50%”.

What about the “ABA binding molar ratio / affinity” value [6] of the same molecule?
Its value is “slight binding affinity”.
